Laboratory results from patent publication US6261760A, “Regulation of the cell cycle by sterols” (priority 1999, dated 2001).
Entries after “also recorded” stand apart in the source; their conditions may differ. Like-named read-outs stand apart in the source and are kept apart here.

Legend:
caveolin promoter = assay: Luciferase expression driven by caveolin promoter (pGL3); format: cell-based; settings: Homo sapiens, Skin fibroblast, 3 h; 50 μM cholesterol α-epoxide, 80% v/v plasma; read-out: reduction of luciferase expression
Excerpt: The pGL3 luciferase vector (Promega, Madison, Wis.) was used for cloning purposes. A 705 bp Bgl II restriction fragment corresponding to -781 to -76 bp (relative to the translational start site) was isolated from the 4 kb genomic fragment described above. This was subcloned into the Bgl II site of the vector. The orientation of the insert was identified by restriction mapping and DNA sequencing.
Mutations of sequences within the promoter were created by deletional mutagenesis on single strand DNA, using the Sculptor mutagenesis kit (Amersham). On the basis of the caveolin gene promoter sequence, three oligonucleotides were designed: i) from -664 to -620 with bases -646 to -637 deleted; ii) from -412 to -363 with bases -395 to -386 deleted; and iii) from -302 to -262 with bases -287 to -278 deleted. These were used to generate the promoter mutants designated Δ1, Δ2 and Δ3 respectively.
Normal skin fibroblasts were plated at a density of 5-8×10^5 cells per 6 cm dish. These cells were transfected with 10 μg per dish of the wild type (705 bp) caveolin promoter fragment subcloned in the forward and reverse orientation in the luciferase expression vector pGL3. […] After 10-20 sec, luciferase activity was determined using an analytical luminometer (Monolight 2010, Analytical Luminescence Laboratories, San Diego, Calif.).

caveolin mRNA [1] = assay: Caveolin mRNA levels (Northern blot); settings: 80% v/v plasma + 50 μM cholesterol α-epoxide, 8 h with actinomycin, 37° C.
[2] = test system: LDL FC uptake by fibroblast monolayers; assay: Effects of metabolic inhibitors on uptake of 3H-cholesterol from LDL (Example 1)
caveolin mRNA [3] = settings: literature; cited from earlier work
fibroblasts = settings: fibroblast monolayers; cited from earlier work
[4] = test system: human hepatoblastoma (HepG2) cells; settings: cited from earlier work
[5] = test system: LDL FC uptake by fibroblast monolayers; settings: in words
vesicular transport = settings: assays of vesicular transport in vitro; cited from earlier work
fibroblast monolayers [6] = assay: FC efflux from fibroblast monolayers (3H-FC label); format: cell-based, human
Procedure: Fibroblast monolayers were equilibrated with ^3 H-FC-labeled native plasma or with isolated ^3 H-labeled LDL, as specified for each experiment. Following incubation, the dishes were washed with albumin-complete PBS and then (×4) with complete PBS. They were then incubated for 3 min with unlabeled plasma or lipoprotein fractions and the rate of appearance of radioactivity in the medium determined. Samples of medium ([…]) were immediately chilled in ice water and centrifuged (10 min, 2000×g) at 0-2° C. ^3 H-cholesterol radioactivity in the supernatant was either assayed directly, or fractionated by agarose gel electrophoresis. FC efflux was linear as previously reported (Kawano et al., Biochemistry, 32: 5025-5028 (1993)).
For electrophoresis, […] portions of labeled medium were added to strips of 0.75% w/v agarose in 0.025 M barbital buffer (pH 8.6) and separated as previously described (Fielding et al., Biochemistry, 30: 8551-8557 (1991)). 2.5 mm gel fractions were then collected, and radioactivity measured. The location of major lipoprotein classes was determined from strips run simultaneously with whole native plasma equilibrated (60 min, 37° C.) With ^3 HFC.
Rates of FC influx and efflux between medium and fibroblast monolayers preincubated for 24 h with 7-80% native human plasma in DMEM were determined. Cells equilibrated in 80% compared to 7% v/v plasma contained 35-40% more total cholesterol but only 10-15% more FC. In 50% v/v plasma, cholesteryl ester levels were lower than in 80% plasma but FC levels were almost the same. Rates of transfer of FC between the cells and their extracellular medium were determined for each plasma dilution. […] was measured as the rate of transfer of ^3 H-FC radioactivity from labeled native plasma to unlabeled cells. […] was determined as the rate of transfer of radioactivity from uniformly labeled cells to unlabeled native plasma medium.

[7] = test system: intracellular FC transport to the cell surface in fibroblast monolayers; assay: Transfer of intracellular 3H-FC to the cell surface (cholesterol oxidase); format: cell-based, human; settings: in words
Procedure: This assay utilized the finding (see Example 1) that only FC in the caveolar fraction of the plasma membrane fraction was modified by cholesterol oxidase in unfixed fibroblast monolayers.
The rate at which intracellular LDL-derived ^3 H-FC became accessible at the cell surface was measured as follows. Cell monolayers were labeled with ^3 H-FC LDL under the conditions shown for each experiment. Unbound and adsorbed LDL were removed as described above. In some experiments metabolic inhibitors of different transport steps were then added for 30 min at 15° C. […] Cholesterol oxidase (Boehringer-Manheim, Indianapolis, Ind., USA) was added in PBS to a final concentration of 1 U ml^-1. Incubation was for 4 h at 0° C. The cells were washed with ice-cold PBS, and extracted with 0.1 N NAOH. Cell total lipid was extracted with chloroform-methanol (1:1 v/v). […] .
Fibroblast monolayers were prelabeled with FC-labeled LDL for 2 min at 31° C. Medium and surface-bound labeled LDL were removed as described above. The cells were incubated with inhibitors of intracellular transport for 30 min at 15° C. Movement of FC label to the cell surface remained negligible (FIG. 11). The cells were brought to 31° C. for 15 min, and then cooled on wet ice. ^3 H-FC transfer to the cell surface (in the presence and absence of inhibitor) was assayed with cholesterol oxidase as described above.

[8] = test system: intracellular FC vesicle fractions of fibroblast monolayers; assay: D2O-Ficoll density gradient fractionation of LDL-derived 3H-FC vesicles; format: cell-based, human; settings: NEM 2 mM
Procedure: Early endosomal vesicles were labeled with LDL-derived ^3 H-FC by a modification of procedures described by Woodman & Warren (1991) J. Cell Biol., 112:1133-1141. Fibroblast monolayers in 10 cm dishes were washed in ice-cold PBS. The cells were labeled by incubation (2 h, 4° C.) with ^3 H-FC LDL. The monolayers were washed in PBS and brought to 31° C. for 0-15 min. The cells were then quickly chilled on ice, and cold unlabeled LDL was added (15 min, 4° C.) to displace any remaining surface-bound labeled LDL and all subsequent steps were carried out at 0-4° C.
Cells from three 10 cm dishes were used for each gradient. Monolayers were washed with 140 mM sucrose, 0.5 mM MgCl2, 1 mM EGTA, 20 mM 2-[N-morpholino]ethanesulfonic acid (MES), 70 mM potassium acetate, pH 6.6 (`vesicle buffer`) (Woodman & Warren, supra.). […] Fractions (~0.6 ml) were collected dropwise and the distribution of FC label determined. […] Solution density was determined gravimetrically using […] portions of each fraction. […]
The identity of intracellular transport intermediates and the extent of any cross-contamination between fractions was established using specific antibodies to protein markers, labeled ligands of receptor proteins, and assays of enzyme proteins. […] The distribution of antigen between different gradient fractions was determined with a computerized scanner (ImageQuant, Molecular Devices, Sunnyvale, Calif., USA).

[9] = test system: LDL FC uptake by fibroblast monolayers; assay: Transfer of LDL-derived 3H-FC into fibroblast monolayers with metabolic inhibitors (Example 2); format: cell-based, human; settings: brefeldin A, vinblastine, taxol, nocodazole; NEM 2 mM
fibroblast monolayers [10] = assay: Cellular cholesterol mass (FC, EC, total); format: cell-based, human; settings: +NEM 2 mM; increase over 120 min, 37° C.
Procedure: The FC and EC mass of cell monolayers was determined before and after incubation with lipoprotein as described above. Portions of the chloroform phase were analyzed for total and free cholesterol. Except where indicated each data point represents the mean of triplicate dishes. The coefficient of variation was <5% of means in these experiments.
120 min. at 37° C. Initial cell FC was […].

Compound: CC(C)CCC[C@@H](C)[C@H]1CC[C@H]2[C@@H]3CC4OC45C[C@@H](O)CC[C@]5(C)[C@H]3CC[C@]12C (stereo partly drawn) [cholesterol α-epoxide]
- inhibition at 50 µM (caveolin promoter): 60%
- caveolin mRNA level relative to total RNA (caveolin mRNA [1]): 0.47

Compound: CC(=O)[C@H]1CC[C@H]2[C@@H]3CCC4=CC(=O)CC[C@]4(C)[C@H]3CC[C@]12C [Progesterone]
- effect on LDL FC uptake ([2]; in words): without effect
- effect on caveolin mRNA levels (caveolin mRNA [3]): reduced equilibrium caveolin mRNA levels
- transport of FC between the TGN and cell surface (fibroblasts): inhibited FC transport between the TGN and cell surface
- effect on transfer of FC from plasma membrane to cell interior [4]: promoted the transfer of FC from the plasma membrane to the interior of the cell
- effect on LDL FC uptake [5]: no effect

Compound: CCN1C(=O)C=CC1=O [N-ethylmaleimide]
- inhibition of the uptake of free cholesterol from LDLs ([2]; FIG. 8): > 80%
- time course of inhibition of LDL FC uptake ([2]; NEM: first 10-15 min, KNO3: 50 mM, data not shown): no effect
- time to complete inhibition ([2]; cells prelabeled to equilibrium (24 h) with 3H-FC): ≤ 30 min
- inhibition of the uptake of 3H-FC from LDL ([2]; preincubated 30 min with NEM, incubation beyond 10-15 min, FIG. 8): > 80%
- concentration for maximal inhibition (vesicular transport): 1 mM
- Lipoprotein-resistant label (fibroblast monolayers [6]; +NEM 2 mM, proportion retained after 80% v/v plasma-PBS, 10 min, 37° C.): 0.24 ± 0.03
- initial rate of efflux of FC from prelabeled cells to plasma (fibroblast monolayers [6]; in words, listed as NEM): increased rate of efflux; also recorded: increased several-fold
- effect on transport of intracellular 3H-FC to the cell surface [7]: inhibited the return of FC to the cell surface, but less effectively than did nocodazole
- FC label with clathrin at d 1.12 g ml^-1 [8]: no peak of FC label was present with clathrin at d 1.12 g ml^-1
- effect on uptake of 3H-FC from LDL [9]: blocks selective uptake of FC from LDL
- D total cholesterol (fibroblast monolayers [10]): 0.4 ± 0.2 Fg dish^-1
